Measurements published in patent publication US20120190620A1, “METHODS TO IDENTIFY TARGETS AND MOLECULES REGULATING PURINOSOMES AND THEIR USES” (priority 2010, published 2012).

Legend:
Format in all cases: cell-based, human
[1] = tested on: HeLa cells; assay: Purinosome dynamics DMR screen, sequential order molecule, TBB, DMAT; conditions: agonist library; order agonist, TBB, DMAT; FIG. 4
Text: A library of agonists for various different GPCRs were used to individually pretreat a confluent layer of Hela cells for about one hour, before sequential stimulation with TBB and DMAT, respectively. The responses were monitored using Epic® system.
(A) The dose-dependent DMR signals of Hela cells induced by alpha2A agonist clonidine. (B) The TBB DMR signal of Hela cells after pretreated with clonidine at different doses. (C) The dose-dependent DMR signals of pertussis toxin (PTX)-pretreated Hela cells induced by alpha2A agonist clonidine. (D) The TBB DMR signal of the PTX-pretreated Hela cells after stimulated with clonidine at different doses. The TBB concentration was 20 μM in both (C) and (D). The clonidine pretreatment occurred about one-hour before the TBB stimulation.
(§1) Epic® wavelength interrogation system (Corning Inc., Corning, N.Y.) was used for whole cell sensing. This system consists of a temperature-control unit, an optical detection unit, and an on-board liquid handling unit with robotics. The detection unit is centered on integrated fiber optics, and enables kinetic measures of cellular responses with a time interval of ˜15 sec. The compound solutions were introduced by using the on-board liquid handling unit (i.e., pippetting).
(§2) For biosensor cellular assays, compound solutions were made by diluting the stored concentrated solutions with the HBSS (1× Hanks balanced salt solution, plus 20 mM Hepes, pH 7.1), and transferred into a 384 well polypropylene compound storage plate to prepare a compound source plate. Two compound source plates were made separately when a two-step assay was performed. In parallel, the cells were washed twice with the HBSS and maintained in 30 μl of the HBSS to prepare a cell assay plate. Both the cell assay plate and the compound source plate(s) were then incubated in the hotel of the reader system. After incubation the baseline wavelengths of all biosensors in the cell assay microplate were recorded and normalized to zero. Afterwards, a 2 to 10 min continuous recording was carried out to establish a baseline, and to ensure that the cells reached a steady state. Cellular responses were then triggered by transferring 10 μl of the compound solutions into the cell assay plate using the on-board liquid handler.
(§3) All studies were carried out at a controlled temperature (28° C.). At least two independent sets of experiments, each with at least three replicates, were performed.
(§4) The upstream signaling pathways linking to the purinosome is unknown at the present time. To identify cellular targets and pathways that are involved in regulating purinosome dynamics, a library of agonists for a great number of G protein-coupled receptors and membrane bound receptor tyrosine kinases was made in house, and each agonist was used to stimulate a confluent layer of Hela cells, cultured using high initial seeding number (25k per well for 384 well Epic® cell culture compatible biosensor microplates) in purine rich medium (i.e., regular 10% FCS or FBS). The concentrations for all small organic molecules were 10 micromolar, whereas 1 micromolar for all small peptides, and 100 nanomolar for all protein factors (molecular weight >15k Da). The cellular responses to each agonist were recorded for about 1 hour, and used to determine the functional expression of their corresponding cognate receptor(s).

[2] = tested on: HeLa cells; assay: Purinosome dynamics DMR screen, sequential order molecule, DMAT, TBB; conditions: for modulation of the DMAT DMR signal / modulation of the TBB DMR signal: GPCR/RTK agonist library, pretreated about one hour, order agonist, DMAT (20 micromolar), TBB (25 micromolar), FIG. 3; for modulation of the DMAT signal / modulation of the TBB signal: adrenergic receptor ligand library, order ligand, TBB, FIG. 5, DMAT
Text: A library of agonists for various different GPCRs were used to individually pretreat a confluent layer of Hela cells for about one hour, before sequential stimulation with DMAT and TBB, respectively. The responses were monitored using Epic® system.
A library of molecules targeting endogenous alpha2A and beta2 adrenergic receptors were used to individually pretreat a confluent layer of Hela cells for about one hour, before sequential stimulation with DMAT and TBB, respectively. The responses were monitored using Epic® system.
as §1, §2, §3, §4
To examine the receptor whose signaling is involved in regulating the purinosome dynamics, Hela cells were pretreated individually with each agonist for about one hour, followed by sequential stimulation with DMAT (20 micromolar) and TBB (25 micromolar), each step about 1 hour.

[3] = tested on: HeLa cells; assay: Epic label-free biosensor DMR assay of compound-induced signals in HeLa cells; conditions: for effect of pretreatment on the sequential DMAT response / effect of pretreatment on the sequential TBB response: HeLa cells pretreated with the compound about 1 hr; for effect of pretreatment on the sequential DMAT response: then DMAT; for effect of pretreatment on the sequential TBB response: then TBB; for DMR signal induced by CK2 inhibitor: HeLa cells, regular serum medium, high initial seeding number
Text: HeLa cells were obtained from American Type Cell Culture (Manassas, Va.). This cervical cancer cell line was maintained in regular serum medium (i.e., minimum essential medium (MEM) (Invitrogen) supplemented with 10% fetal bovine serum (FBS) and 1% Penicillin/streptomycin). To investigate the effects of purine depletion on the purinosome formation and dissociation, HeLa cells were maintained for at least two passages in “purine-depleted medium” prior cell assays. The purine depleted medium is a medium consisting of Roswell Park Memorial Institute 1640 (RPMI 1640) supplemented with dialyzed 5% FBS […]. FBS was dialyzed against 0.9% NaCl at 4° C. for ˜2 days using a 25 kDa MWCO dialysis membrane to remove purines. This process completely removes the purines normally present in FBS.
Cells were typically grown using ˜1 to 2×10^4 cells per well at passage 3 to 15 suspended in 50 μl of the corresponding culture medium in the biosensor microplate, and were cultured at 37° C. under air/5% CO2 for ˜1 day. The confluency for all cells at the time of assays was ˜100%.
as §1
The RWG biosensor is capable of detecting minute changes in local index of refraction near the sensor surface. Since the local index of refraction within a cell is a function of density and its distribution of biomass (e.g., proteins, molecular complexes), the biosensor exploits its evanescent wave to non-invasively detect ligand-induced dynamic mass redistribution in native cells. The evanescent wave extends into the cells and exponentially decays over distance, leading to a characteristic sensing volume of ˜150 nm, implying that any optical response mediated through the receptor activation only represents an average over the portion of the cell that the evanescent wave is sampling. The aggregation of many cellular events downstream the receptor activation determines the kinetics and amplitudes of a ligand-induced DMR.
as §2, §3

Molecule | modulation of the DMAT signal [2] | modulation of the TBB signal [2] | further results
CS(=O)(=O)Nc1c(O)ccc2c1CCCC2C1=NCCN1 (stereo not drawn) [A61603] | suppress | potentiate | modulation of the TBB DMR signal [1]: selectively potentiate; modulation of the DMAT DMR signal [2]: suppress; modulation of the TBB DMR signal [2]: potentiate
N=C(CC(O)COc1ccccc1-c1ccccc1)N1CCCCC1 (stereo not drawn) [AH11110A] | potentiate | suppress | 
Nc1ncnc2c1ncn2[C@@H]1O[C@H](COP(=O)(O)OP(=O)(O)OP(=O)(O)O)[C@@H](O)[C@H]1O [ATP] |  |  | modulation of the TBB DMR signal [1]: selectively potentiate; modulation of the DMAT DMR signal [2]: selectively suppress
OC[C@H]1O[C@@H](n2cnc3cc(Cl)c(Cl)cc32)[C@H](O)[C@@H]1O [DRB, 5,6-Dichlorobenzimidazole 1-β-D-ribofuranoside] |  |  | effect of pretreatment on the sequential DMAT response [3]: desensitized; effect of pretreatment on the sequential TBB response [3]: slightly potentiated; DMR signal induced by CK2 inhibitor [3]: DMR signals similar to the DMAT response
O=C(O)c1cc([N+](=O)[O-])ccc1NCCCc1ccccc1 [NPPB] |  |  | modulation of the DMAT DMR signal [2]: potentiate; modulation of the TBB DMR signal [2]: no or little impact
CCCCC[C@H](O)/C=C/[C@H]1C(=O)C[C@H](O)[C@@H]1C/C=C\CCCC(=O)O [PGD2, prostaglandin D2] |  |  | modulation of the TBB DMR signal [1]: selectively suppress; modulation of the DMAT DMR signal [2]: potentiate; modulation of the TBB DMR signal [2]: no or little impact
CCCCC[C@H](O)/C=C/[C@H]1[C@H](O)CC(=O)[C@@H]1C/C=C\CCCC(=O)O [PGE2, peostaglandin E2] |  |  | modulation of the TBB DMR signal [1]: selectively suppress; modulation of the DMAT DMR signal [2]: potentiate; modulation of the TBB DMR signal [2]: no or little impact
CC(C)(Cc1c[nH]c2ccc(Cl)cc12)NCCOc1ccccc1OCC1CC1 [RS17053] | potentiate | suppress | 
Brc1c(Br)c(Br)c2[nH]cnc2c1Br [TBBz, 4,5,6,7-tetrabromobenzimidazole] |  |  | type of CK2 inhibitor by label-free biosensor cellular assay [3]: purinosome disruption agent
O=C(O)/C=C/c1cc(Br)c(Br)c(Br)c1Br [TBCA, Tetrabromocinnamic Acid] |  |  | type of CK2 inhibitor by label-free biosensor cellular assay [3]: purinosome promoting agent; effect of pretreatment on the sequential DMAT response [3]: desensitized; effect of pretreatment on the sequential TBB response [3]: slightly potentiated; DMR signal induced by CK2 inhibitor [3]: DMR signals similar to the DMAT response
Brc1c(NC2=NCCN2)ccc2nccnc12 [UK14304] | suppress | potentiate | 
Clc1ccc2c(c1)C(N1CCNCC1)=Nc1ccccc1O2 [amoxapine] | potentiate | suppress | 
O=c1cc(-c2ccc(O)cc2)oc2cc(O)cc(O)c12 [apigenin] |  |  | DMR signal induced by CK2 inhibitor [3]: DMR signals similar to the DMAT response
c1ccc2c(c1)[I+]c1ccccc1-2 [diphylpheneiodonium] | potentiate | suppress | 
CC(CCc1ccc(O)cc1)NCCc1ccc(O)c(O)c1 (stereo not drawn) [dobutamine] | specifically suppress |  | 
N=C(N)N/N=C/c1c(Cl)cccc1Cl [guanabenz] | suppress | potentiate | 
N=C(N)NC(=O)Cc1c(Cl)cccc1Cl [gufacine] | suppress | potentiate | 
CC(C(O)c1ccc(O)cc1)N1CCC(Cc2ccccc2)CC1 (stereo not drawn) [ifenprodil] | potentiate | suppress | 
CCC(NC(C)C)C(O)c1ccc(O)c(O)c1 (stereo not drawn) [isoetharine] | specifically suppress |  | 
CC(C)NCC(O)c1ccc(O)c(O)c1 (stereo not drawn) [isoproterenol] | specifically suppress |  | 
CNCCCC12CCC(c3ccccc31)c1ccccc12 [maprotiline] | potentiate | suppress | 
CC(N)C(O)c1ccc(O)c(O)c1 (stereo not drawn) [methylnorephrine] | suppress | potentiate | 
c1ccc2c(CC3=NCCN3)cccc2c1 [naphazoline] | suppress | potentiate | 
NC[C@H](O)c1ccc(O)c(O)c1 [norepinephrine] | suppress | potentiate | 
C1COC(NC(C2CC2)C2CC2)=N1 [rilmenidine] | suppress | potentiate | 
Clc1ccc2nsnc2c1NC1=NCCN1 [tizanidine] | suppress | potentiate | 
Cc1cccc(C)c1N=C1NCCCS1 [xylazine] | suppress | potentiate | 
EGF: epidermal growth factor, the EGFR agonist (NSDSECPLSHDGYCLHDGVCMYIEALDKYACNCVVGYIGERCQYRDLKWWELR; not fully specified; Epidermal growth factor; UniProt P01133 971-1023, looked up) |  |  | modulation of the DMAT DMR signal [1]: selectively suppress
HGF: hepatocyte growth factor, the HGFR agonist |  |  | modulation of the TBB DMR signal [1]: selectively potentiate
IGF1: insulin-like growth factor 1, the IGF1R agonist |  |  | modulation of the TBB DMR signal [1]: selectively potentiate
